Experimental data published in PubChem BioAssay (NCI).
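GI50 = concentration required for 50% inhibition of growth. TGI is the concentration that stops growth completely.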

How the values were obtained:
Assay in all cases: growth of human tumour cells (NCI), 384-well format
SNB-19 CNS = test system: SNB-19 CNS
HT29 colon = test system: HT29 colon
HOP-62 NSCLC = test system: HOP-62 NSCLC
SF-539 CNS = test system: SF-539 CNS
SK-MEL-5 melanoma = test system: SK-MEL-5 melanoma
COLO 205 colon = test system: COLO 205 colon
SK-OV-3 ovarian = test system: SK-OV-3 ovarian
SN12C renal = test system: SN12C renal
MCF7 breast = test system: MCF7 breast
NCI-H322M lung = test system: NCI-H322M lung
NCI-H522 lung = test system: NCI-H522 lung
HCC-2998 colon = test system: HCC-2998 colon
MDA-MB-468 breast = test system: MDA-MB-468 breast
NCI-H226 lung = test system: NCI-H226 lung
EKVX NSCLC = test system: EKVX NSCLC
OVCAR-4 ovarian = test system: OVCAR-4 ovarian
HL-60(TB) leukemia = test system: HL-60(TB) leukemia
DU-145 prostate = test system: DU-145 prostate
SK-MEL-28 melanoma = test system: SK-MEL-28 melanoma
A498 renal = test system: A498 renal
T-47D breast = test system: T-47D breast
OVCAR-5 ovarian = test system: OVCAR-5 ovarian
SNB-75 CNS = test system: SNB-75 CNS
SF-295 CNS = test system: SF-295 CNS
SR leukemia = test system: SR leukemia
MOLT-4 leukemia = test system: MOLT-4 leukemia
BT-549 breast = test system: BT-549 breast
A549 NSCLC = test system: A549 NSCLC
HCT-15 colon = test system: HCT-15 colon
HS 578T breast = test system: HS 578T breast
MDA-MB-231 breast = test system: MDA-MB-231 breast
RPMI-8226 leukemia = test system: RPMI-8226 leukemia
CCRF-CEM leukemia = test system: CCRF-CEM leukemia
UACC-62 melanoma = test system: UACC-62 melanoma
CAKI-1 renal = test system: CAKI-1 renal
U251 glioblastoma = test system: U251 glioblastoma
MDA-MB-435 melanoma = test system: MDA-MB-435 melanoma
MALME-3M melanoma = test system: MALME-3M melanoma
IGROV1 ovarian = test system: IGROV1 ovarian
KM12 colon = test system: KM12 colon
HCT-116 colon = test system: HCT-116 colon
NCI-H460 NSCLC = test system: NCI-H460 NSCLC
NCI-H23 lung = test system: NCI-H23 lung
UACC-257 melanoma = test system: UACC-257 melanoma
OVCAR-8 ovarian = test system: OVCAR-8 ovarian
TK-10 renal = test system: TK-10 renal
LOX IMVI melanoma = test system: LOX IMVI melanoma

C[C@@H](O)[C@H](NC(=O)N[C@@H](CC(N)=O)c1nc([C@@H](N)CO)no1)C(=O)O
GI50 (SNB-19 CNS): > 100 µM | TGI (SNB-19 CNS): > 100 µM | GI50 (HT29 colon): > 100 µM | TGI (HT29 colon): > 100 µM | GI50 (HOP-62 NSCLC): > 100 µM | TGI (HOP-62 NSCLC): > 100 µM | GI50 (SF-539 CNS): > 100 µM | TGI (SF-539 CNS): > 100 µM | GI50 (SK-MEL-5 melanoma): > 100 µM | TGI (SK-MEL-5 melanoma): > 100 µM | GI50 (COLO 205 colon): > 100 µM | TGI (COLO 205 colon): > 100 µM | GI50 (SK-OV-3 ovarian): > 100 µM | TGI (SK-OV-3 ovarian): > 100 µM | GI50 (SN12C renal): > 100 µM | TGI (SN12C renal): > 100 µM | GI50 (MCF7 breast): > 100 µM | TGI (MCF7 breast): > 100 µM | GI50 (NCI-H322M lung): > 100 µM | TGI (NCI-H322M lung): > 100 µM | GI50 (NCI-H522 lung): > 100 µM | TGI (NCI-H522 lung): > 100 µM | GI50 (HCC-2998 colon): > 100 µM | TGI (HCC-2998 colon): > 100 µM | GI50 (MDA-MB-468 breast): > 100 µM | TGI (MDA-MB-468 breast): > 100 µM | GI50 (NCI-H226 lung): > 100 µM | TGI (NCI-H226 lung): > 100 µM | GI50 (EKVX NSCLC): > 100 µM | TGI (EKVX NSCLC): > 100 µM | GI50 (OVCAR-4 ovarian): > 100 µM | TGI (OVCAR-4 ovarian): > 100 µM | GI50 (HL-60(TB) leukemia): > 100 µM | TGI (HL-60(TB) leukemia): > 100 µM | GI50 (DU-145 prostate): > 100 µM | TGI (DU-145 prostate): > 100 µM | GI50 (SK-MEL-28 melanoma): > 100 µM | TGI (SK-MEL-28 melanoma): > 100 µM | GI50 (A498 renal): > 100 µM | TGI (A498 renal): > 100 µM | GI50 (T-47D breast): > 100 µM | TGI (T-47D breast): > 100 µM | GI50 (OVCAR-5 ovarian): > 100 µM | TGI (OVCAR-5 ovarian): > 100 µM | GI50 (SNB-75 CNS): > 100 µM | TGI (SNB-75 CNS): > 100 µM | GI50 (SF-295 CNS): > 100 µM | TGI (SF-295 CNS): > 100 µM | GI50 (SR leukemia): > 100 µM | TGI (SR leukemia): > 100 µM | GI50 (MOLT-4 leukemia): > 100 µM | TGI (MOLT-4 leukemia): > 100 µM | GI50 (BT-549 breast): > 100 µM | TGI (BT-549 breast): > 100 µM | GI50 (A549 NSCLC): > 100 µM | TGI (A549 NSCLC): > 100 µM | GI50 (HCT-15 colon): > 100 µM | TGI (HCT-15 colon): > 100 µM | GI50 (HS 578T breast): > 100 µM | TGI (HS 578T breast): > 100 µM | GI50 (MDA-MB-231 breast): > 100 µM | TGI (MDA-MB-231 breast): > 100 µM | GI50 (RPMI-8226 leukemia): > 100 µM | TGI (RPMI-8226 leukemia): > 100 µM | GI50 (CCRF-CEM leukemia): > 100 µM | TGI (CCRF-CEM leukemia): > 100 µM | GI50 (UACC-62 melanoma): > 100 µM | TGI (UACC-62 melanoma): > 100 µM | GI50 (CAKI-1 renal): > 100 µM | TGI (CAKI-1 renal): > 100 µM | GI50 (U251 glioblastoma): > 100 µM | TGI (U251 glioblastoma): > 100 µM | GI50 (MDA-MB-435 melanoma): > 100 µM | TGI (MDA-MB-435 melanoma): > 100 µM | GI50 (MALME-3M melanoma): > 100 µM | TGI (MALME-3M melanoma): > 100 µM | GI50 (IGROV1 ovarian): > 100 µM | TGI (IGROV1 ovarian): > 100 µM | GI50 (KM12 colon): > 100 µM | TGI (KM12 colon): > 100 µM | GI50 (HCT-116 colon): > 100 µM | TGI (HCT-116 colon): > 100 µM | GI50 (NCI-H460 NSCLC): > 100 µM | TGI (NCI-H460 NSCLC): > 100 µM | GI50 (NCI-H23 lung): > 100 µM | TGI (NCI-H23 lung): > 100 µM | GI50 (UACC-257 melanoma): > 100 µM | TGI (UACC-257 melanoma): > 100 µM | GI50 (OVCAR-8 ovarian): > 100 µM | TGI (OVCAR-8 ovarian): > 100 µM | GI50 (TK-10 renal): > 100 µM | TGI (TK-10 renal): > 100 µM | GI50 (LOX IMVI melanoma): > 100 µM | TGI (LOX IMVI melanoma): > 100 µM
